Results from patent publication US20260000692A1, “Substituted N-(Pyridin-2-yl)Acetamide Derivatives as CDK12/13 Inhibitors” (Aurigene Oncology Limited, priority 2022, published 2026).

Target: CDK12 (Homo sapiens, UniProt Q9NYV4)
Test: Biochemical assay for CDK12 (LANCE TR-FRET, IC50 determination)
Conditions: for IC50: CDK12, IC50 class, read-out: IC50 μM (in range); for inhibition at 10 µM: compound at 10 μM, read-out: CDK12 % Inhibition @ 10 μM; for inhibition at 2 µM: compound at 2 μM (stated in the cell, not the 10 μM of the column head)
How it was run: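 30 nM CDK12 phosphorylated 100 nM ULight-4E-BP1 (Thr37/Thr46) peptide at 100 µM ATP, as printed, in HEPES pH 7.5 buffer with MgCl2 and DTT. Compound and enzyme were preincubated 60 min, then reacted 60 min at room temperature before stopping with EDTA and Eu anti-phospho antibody. TR-FRET 665/615 ratio gave sigmoidal IC50 fits.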

CDK12, sequence (Q9NYV4 whole entry): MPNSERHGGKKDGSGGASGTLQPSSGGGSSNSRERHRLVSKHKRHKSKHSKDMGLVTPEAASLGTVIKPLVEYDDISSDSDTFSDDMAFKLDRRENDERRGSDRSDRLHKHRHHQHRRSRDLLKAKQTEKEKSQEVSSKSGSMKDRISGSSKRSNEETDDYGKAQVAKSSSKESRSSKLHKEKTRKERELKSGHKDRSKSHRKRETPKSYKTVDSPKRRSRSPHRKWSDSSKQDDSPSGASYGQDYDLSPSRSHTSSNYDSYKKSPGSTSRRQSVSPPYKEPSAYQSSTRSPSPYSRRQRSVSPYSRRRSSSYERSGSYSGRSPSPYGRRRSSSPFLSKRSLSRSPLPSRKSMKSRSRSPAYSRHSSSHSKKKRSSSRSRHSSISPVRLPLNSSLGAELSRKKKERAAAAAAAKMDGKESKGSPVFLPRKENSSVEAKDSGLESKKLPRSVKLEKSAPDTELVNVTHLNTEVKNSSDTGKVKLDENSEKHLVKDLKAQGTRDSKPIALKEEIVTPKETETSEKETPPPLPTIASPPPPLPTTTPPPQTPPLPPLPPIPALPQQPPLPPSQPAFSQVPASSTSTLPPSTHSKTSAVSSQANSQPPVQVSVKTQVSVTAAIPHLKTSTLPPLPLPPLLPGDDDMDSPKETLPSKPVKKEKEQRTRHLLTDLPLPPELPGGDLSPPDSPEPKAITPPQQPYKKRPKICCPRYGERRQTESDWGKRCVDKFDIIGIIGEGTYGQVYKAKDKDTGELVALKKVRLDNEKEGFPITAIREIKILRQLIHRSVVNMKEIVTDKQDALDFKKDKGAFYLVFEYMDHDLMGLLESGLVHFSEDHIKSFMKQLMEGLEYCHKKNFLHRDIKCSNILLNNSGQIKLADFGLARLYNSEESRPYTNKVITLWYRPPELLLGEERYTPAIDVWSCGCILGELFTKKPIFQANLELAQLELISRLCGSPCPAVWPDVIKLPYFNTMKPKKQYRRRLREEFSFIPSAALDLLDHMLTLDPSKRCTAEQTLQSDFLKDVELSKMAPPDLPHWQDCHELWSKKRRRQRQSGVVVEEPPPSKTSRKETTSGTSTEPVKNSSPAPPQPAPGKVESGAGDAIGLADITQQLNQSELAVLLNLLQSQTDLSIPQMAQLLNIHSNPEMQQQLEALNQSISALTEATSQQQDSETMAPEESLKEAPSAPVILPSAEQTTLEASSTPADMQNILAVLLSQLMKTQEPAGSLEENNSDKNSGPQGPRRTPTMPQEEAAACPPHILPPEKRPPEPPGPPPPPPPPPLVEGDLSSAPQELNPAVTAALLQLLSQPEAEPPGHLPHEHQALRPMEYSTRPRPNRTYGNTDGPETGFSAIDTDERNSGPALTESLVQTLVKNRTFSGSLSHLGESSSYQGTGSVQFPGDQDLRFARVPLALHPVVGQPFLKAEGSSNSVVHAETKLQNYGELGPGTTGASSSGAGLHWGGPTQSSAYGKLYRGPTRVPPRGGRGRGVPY
CDK12, sequence (O75909 whole entry partner): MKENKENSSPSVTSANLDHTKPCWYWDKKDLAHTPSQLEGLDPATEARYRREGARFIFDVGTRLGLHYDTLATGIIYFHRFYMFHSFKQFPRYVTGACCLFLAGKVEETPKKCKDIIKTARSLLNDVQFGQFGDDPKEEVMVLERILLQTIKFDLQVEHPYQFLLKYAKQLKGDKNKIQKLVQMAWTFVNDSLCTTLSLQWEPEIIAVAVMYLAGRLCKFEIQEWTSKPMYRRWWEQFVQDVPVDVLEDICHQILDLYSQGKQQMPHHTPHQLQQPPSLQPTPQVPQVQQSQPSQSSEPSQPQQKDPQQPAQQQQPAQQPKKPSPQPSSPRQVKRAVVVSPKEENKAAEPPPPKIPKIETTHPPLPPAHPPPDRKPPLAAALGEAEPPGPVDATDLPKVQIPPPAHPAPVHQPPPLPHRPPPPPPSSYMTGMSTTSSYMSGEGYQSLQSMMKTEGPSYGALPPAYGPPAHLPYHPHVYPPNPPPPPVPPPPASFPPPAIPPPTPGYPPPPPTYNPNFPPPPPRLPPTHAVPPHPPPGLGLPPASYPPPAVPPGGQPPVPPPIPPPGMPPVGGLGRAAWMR

Compound	IC50 [µM]	inhibition at 10 µM [%]	inhibition at 2 µM [%]
CNC(=O)C(C)Oc1cc(NC(=O)Cc2ccc(-c3ccnc(C#N)c3)nc2)ncc1Cl (stereo not shown) [Compound 144, 2-((5-chloro-2-(2-(2′-cyano-[2,4′-bipyridin]-5-yl)acetamido)pyridin-4-yl)oxy)-N-methylpropanamide]	0.01 to 0.1	92	
N#Cc1ccc(-c2ccc(CC(=O)Nc3cc(O[C@@H]4CCOC4)c(Cl)cn3)cn2)cn1 [Compound 146, (R)-N-(5-chloro-4-((tetrahydrofuran-3-yl)oxy)pyridin-2-yl)-2-(6′-cyano-[2,3′-bipyridin]-5-yl)acetamide]	0.01 to 0.1	90	
CNC(=O)[C@H](C)Oc1cc(NC(=O)Cc2ccc(-c3ccnc(C#N)c3)nc2)ncc1Cl [Compound 148, (S)-2-((5-chloro-2-(2-(2′-cyano-[2,4′-bipyridin]-5-yl)acetamido)pyridin-4-yl)oxy)-N-methylpropanamide]	0.01 to 0.1	89	
N#Cc1ncc(-c2ccc(CC(=O)Nc3cc(O[C@@H]4CCOC4)c(Cl)cn3)cn2)cn1 [Compound 150, (R)-N-(5-chloro-4-((tetrahydrofuran-3-yl)oxy)pyridin-2-yl)-2-(6-(2-cyanopyrimidin-5-yl)pyridin-3-yl)acetamide]	0.01 to 0.1	83	
CNC(=O)[C@H](C)Oc1cc(NC(=O)Cc2ccc(-c3cnc(C#N)nc3)nc2)ncc1Cl [Compound 151, (S)-2-((5-chloro-2-(2-(6-(2-cyanopyrimidin-5-yl)pyridin-3-yl)acetamido)pyridin-4-yl)oxy)-N-methylpropanamide]	0.01 to 0.1	79	
COc1cc(NC(=O)Cc2ccc(-c3cccc(C#N)n3)c(F)c2)ncc1Cl [Compound 153, N-(5-chloro-4-methoxypyridin-2-yl)-2-(4-(6-cyanopyridin-2-yl)-3-fluorophenyl)acetamide]		34	
COc1cc(NC(=O)Cc2ccc(-c3cccc(C#N)n3)nc2)ncc1Cl [Compound 156, N-(5-chloro-4-methoxypyridin-2-yl)-2-(6′-cyano-[2,2′-bipyridin]-5-yl)acetamide]	< 0.01	80	
COc1cc(NC(=O)Cc2ccc(-c3cncc(C#N)n3)nc2)ncc1Cl [Compound 157, N-(5-chloro-4-methoxypyridin-2-yl)-2-(6-(6-cyanopyrazin-2-yl)pyridin-3-yl)acetamide]	< 0.01	84	
COc1cc(NC(=O)Cc2ccc(-c3ccc(C)c(C#N)n3)nc2)ncc1Cl [Compound 158, N-(5-chloro-4-methoxypyridin-2-yl)-2-(6′-cyano-5′-methyl-[2,2′-bipyridin]-5-yl)acetamide]	> 0.1		70
COc1cc(NC(=O)Cc2ccc(-c3cc(C)cc(C#N)n3)nc2)ncc1Cl [Compound 159, N-(5-chloro-4-methoxypyridin-2-yl)-2-(6′-cyano-4′-methyl-[2,2′-bipyridin]-5-yl)acetamide]	0.01 to 0.1		90
COc1cc(NC(=O)Cc2ccc(-c3nc(C#N)ccc3C)nc2)ncc1Cl [Compound 160, N-(5-chloro-4-methoxypyridin-2-yl)-2-(6′-cyano-3′-methyl-[2,2′-bipyridin]-5-yl)acetamide]	> 0.1	76	
COc1cc(NC(=O)Cc2ccc(-c3cc(N(C)CCN(C)C)cc(C#N)n3)nc2)ncc1Cl [Compound 173]	0.01 to 0.1	90	
COc1cc(NC(=O)Cc2ccc(-c3cc(OC4CCN(C)CC4)cc(C#N)n3)nc2)ncc1Cl [Compound 176, N-(5-chloro-4-methoxypyridin-2-yl)-2-(6′-cyano-4′-((1-methylpiperidin-4-yl)oxy)-[2,2′-bipyridin]-5-yl)acetamide]	0.01 to 0.1	96	
COc1cc(NC(=O)Cc2ccc(-c3ccc(C#N)cc3)nc2)ncc1Cl [Compound 188, N-(5-chloro-4-methoxypyridin-2-yl)-2-(6-(4-cyanophenyl)pyridin-3-yl)acetamide]	> 0.1	65	
COc1cc(NC(=O)Cc2ccc(-c3cccc(C#N)c3)nc2)ncc1Cl [Compound 189, N-(5-chloro-4-methoxypyridin-2-yl)-2-(6-(3-cyanophenyl)pyridin-3-yl)acetamide]	> 0.1	82	
CNC(=O)[C@H](C)Oc1cc(NC(=O)Cc2ccc(-c3cccc(C#N)n3)nc2)ncc1Cl [Compound 190, 2-((5-chloro-2-(2-(6′-cyano-[2,2′-bipyridin]-5-yl)acetamido)pyridin-4-yl)oxy)-N-methylpropanamide]	< 0.01	87	
COc1cc(NC(=O)Cc2ccc(-c3cc(N4CCC(C)(O)CC4)cc(C#N)n3)nc2)ncc1Cl [Compound 192, N-(5-chloro-4-methoxypyridin-2-yl)-2-(6′-cyano-4′-(4-hydroxy-4-methylpiperidin-1-yl)-[2,2′-bipyridin]-5-yl)acetamide]	0.01 to 0.1	88	

The remaining lines, values ahead:

IC50 [µM]	inhibition at 10 µM [%]	inhibition at 2 µM [%]	Compound
0.01 to 0.1	79		N#Cc1cc(-c2ccc(CC(=O)Nc3cc(O[C@@H]4CCOC4)c(Cl)cn3)cn2)ccn1 [Compound 145, (R)-N-(5-chloro-4-((tetrahydrofuran-3-yl)oxy)pyridin-2-yl)-2-(2′-cyano-[2,4′-bipyridin]-5-yl)acetamide]
0.01 to 0.1	89		CNC(=O)[C@H](C)Oc1cc(NC(=O)Cc2ccc(-c3ccc(C#N)nc3)nc2)ncc1Cl [Compound 147, (S)-2-((5-chloro-2-(2-(6′-cyano-[2,3′-bipyridin]-5-yl)acetamido)pyridin-4-yl)oxy)-N-methylpropanamide]
	54		COc1cc(NC(=O)Cc2ccc(-c3ccc(C#N)c(F)c3)nc2)ncc1Cl [Compound 149, N-(5-chloro-4-methoxypyridin-2-yl)-2-(6-(4-cyano-3-fluorophenyl)pyridin-3-yl)acetamide]
> 0.1			COc1cc(NC(=O)Cc2ccc(-c3cccc(C#N)n3)cc2)ncc1Cl [Compound 152, N-(5-chloro-4-methoxypyridin-2-yl)-2-(4-(6-cyanopyridin-2-yl)phenyl)acetamide]
< 0.01	77		N#Cc1cccc(-c2ccc(CC(=O)Nc3cc(O[C@@H]4CCOC4)c(Cl)cn3)cn2)n1 [Compound 154, (R)-N-(5-chloro-4-((tetrahydrofuran-3-yl)oxy)pyridin-2-yl)-2-(6′-cyano-[2,2′-bipyridin]-5-yl)acetamide]
0.01 to 0.1	72		COc1cc(C#N)nc(-c2ccc(CC(=O)Nc3cc(OC)c(Cl)cn3)cn2)c1 [Compound 165, N-(5-chloro-4-methoxypyridin-2-yl)-2-(6′-cyano-4′-methoxy-[2,2′-bipyridin]-5-yl)acetamide]
0.01 to 0.1	95		COCCOc1cc(C#N)nc(-c2ccc(CC(=O)Nc3cc(OC)c(Cl)cn3)cn2)c1 [Compound 169, N-(5-chloro-4-methoxypyridin-2-yl)-2-(6′-cyano-4′-(2-methoxyethoxy)-[2,2′-bipyridin]-5-yl)acetamide]
0.01 to 0.1	90		COc1cc(NC(=O)Cc2ccc(-c3cc(OCCN(C)C)cc(C#N)n3)nc2)ncc1Cl [Compound 170, N-(5-chloro-4-methoxypyridin-2-yl)-2-(6′-cyano-4′-(2-(dimethylamino)ethoxy)-[2,2′-bipyridin]-5-yl)acetamide]
< 0.01	83		COc1cc(NC(=O)Cc2ccc(-c3cc(OC4CCN(C)C4)cc(C#N)n3)nc2)ncc1Cl (stereo not shown) [Compound 171, N-(5-chloro-4-methoxypyridin-2-yl)-2-(6′-cyano-4′-((1-methylpyrrolidin-3-yl)oxy)-[2,2′-bipyridin]-5-yl)acetamide]
0.01 to 0.1	97		COc1cc(NC(=O)Cc2ccc(-c3cc(C(C)(C)O)cc(C#N)n3)nc2)ncc1Cl [Compound 175, N-(5-chloro-4-methoxypyridin-2-yl)-2-(6′-cyano-4′-(2-hydroxypropan-2-yl)-[2,2′-bipyridin]-5-yl)acetamide]
0.01 to 0.1	92		COc1cc(NC(=O)Cc2ccc(-c3cc(N4CC5CC4CN5C)cc(C#N)n3)nc2)ncc1Cl (stereo not shown) [Compound 181, N-(5-chloro-4-methoxypyridin-2-yl)-2-(6′-cyano-4′-(5-methyl-2,5-diazabicyclo[2.2.1]heptan-2-yl)-[2,2′-bipyridin]-5-yl)acetamide]
> 0.1	75		COc1cc(NC(=O)Cc2ccc(-c3cc(N4CC(O)C4)cc(C#N)n3)nc2)ncc1Cl [Compound 182, N-(5-chloro-4-methoxypyridin-2-yl)-2-(6′-cyano-4′-(3-hydroxyazetidin-1-yl)-[2,2′-bipyridin]-5-yl)acetamide]
0.01 to 0.1	80		COc1cc(NC(=O)Cc2ccc(-c3cc(OC4COC4)cc(C#N)n3)nc2)ncc1Cl [Compound 184, N-(5-chloro-4-methoxypyridin-2-yl)-2-(6′-cyano-4′-(oxetan-3-yloxy)-[2,2′-bipyridin]-5-yl)acetamide]
0.01 to 0.1	94		COc1cc(NC(=O)Cc2ccc(-c3cc(N4CCN(C)CC4)cc(C#N)n3)nc2)ncc1Cl [Compound 191, N-(5-chloro-4-methoxypyridin-2-yl)-2-(6′-cyano-4′-(4-methylpiperazin-1-yl)-[2,2′-bipyridin]-5-yl)acetamide]
> 0.1	68		COc1cc(NC(=O)Cc2ccc(-c3cc(N4CC(OC)C4)cc(C#N)n3)nc2)ncc1Cl [Compound 193, N-(5-chloro-4-methoxypyridin-2-yl)-2-(6′-cyano-4′-(3-methoxyazetidin-1-yl)-[2,2′-bipyridin]-5-yl)acetamide]
